Results as given in patent US9617267B2, “Compounds and methods for kinase modulation, and indications therefor” (Plexxikon Inc., priority 2009, dated 2017).
Where two headings read alike, the source gives them in different places.

What was measured:
B-Raf [1] = biological target: B-Raf (Homo sapiens (Human), UniProt P15056); assay: B-Raf kinase activity biochemical assay (AlphaScreen, biotin-MEK1 phosphorylation); conditions: B-Raf
Protocol: (§1) Compounds to be tested are diluted in dimethyl sulfoxide to a concentration of 0.1 mM. These are serially diluted 15 μL into 30 μL of dimethyl sulfoxide seven times in 96 well plates for a total of 8 dilution points, and for each dilution point 1 μL is added to a well of an assay plate. […] The reaction is started with addition of 10 μL of 200 μM ATP (i.e. final 100 μM ATP). After incubation of the kinase reaction for 45 minutes at room temperature, 5 μL/well of Stop Solution is added (25 mM Hepes pH 7.5, 100 mM EDTA, 0.01% BSA with donor beads (Streptavidin coated beads, Perkin Elmer), acceptor beads (Protein A coated, Perkin Elmer), and anti phosphor MEK1/2 antibody (CellSignal), each at final concentration 10 μg/mL). The plates are incubated for 3 hours at room temperature and read on Envision reader (Perkin Elmer). […] The signal vs. compound concentration is used to determine the IC50.

B-Raf [2] = assay: as above; conditions: for Biochemical activity ratio B/V600E: ratio of IC50 B-Raf / B-Raf V600E; for Biochemical activity ratio B/C: ratio of IC50 B-Raf / c-Raf-1
Protocol: as §1

B-Raf V600E = B-Raf V600E (Homo sapiens (Human), UniProt P15056, V600E); assay: B-Raf V600E kinase activity biochemical assay (AlphaScreen, biotin-MEK1 phosphorylation); conditions: for IC50: B-Raf V600E; for Biochemical activity ratio V600E/C: ratio of IC50 B-Raf V600E / c-Raf-1
B-Raf V600E, sequence (P15056 whole entry V600E): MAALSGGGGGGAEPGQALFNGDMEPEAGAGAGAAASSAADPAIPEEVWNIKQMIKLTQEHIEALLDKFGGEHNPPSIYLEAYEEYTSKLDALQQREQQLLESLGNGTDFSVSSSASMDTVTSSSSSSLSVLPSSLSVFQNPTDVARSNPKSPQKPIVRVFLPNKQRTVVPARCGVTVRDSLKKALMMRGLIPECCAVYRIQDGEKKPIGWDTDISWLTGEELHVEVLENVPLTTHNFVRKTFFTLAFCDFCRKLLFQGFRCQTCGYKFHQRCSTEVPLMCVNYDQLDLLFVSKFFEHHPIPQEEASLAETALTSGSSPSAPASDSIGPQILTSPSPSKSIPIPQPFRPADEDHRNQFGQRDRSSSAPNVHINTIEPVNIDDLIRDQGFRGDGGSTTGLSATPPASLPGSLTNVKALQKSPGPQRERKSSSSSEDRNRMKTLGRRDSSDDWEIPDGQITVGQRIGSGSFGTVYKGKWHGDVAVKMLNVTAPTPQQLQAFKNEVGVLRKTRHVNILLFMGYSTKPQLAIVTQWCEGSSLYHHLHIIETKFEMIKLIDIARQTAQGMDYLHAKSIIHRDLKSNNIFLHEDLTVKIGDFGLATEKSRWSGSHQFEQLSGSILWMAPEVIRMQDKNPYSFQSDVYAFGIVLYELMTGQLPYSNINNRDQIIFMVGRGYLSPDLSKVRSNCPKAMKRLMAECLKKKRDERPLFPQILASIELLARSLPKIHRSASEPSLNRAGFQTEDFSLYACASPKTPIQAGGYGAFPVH
Protocol: as §1

c-Raf-1 = c-Raf-1 (Homo sapiens, UniProt P04049); assay: c-Raf-1 kinase activity biochemical assay (AlphaScreen, biotin-MEK1 phosphorylation)
c-Raf-1, sequence (P04049 whole entry, looked up): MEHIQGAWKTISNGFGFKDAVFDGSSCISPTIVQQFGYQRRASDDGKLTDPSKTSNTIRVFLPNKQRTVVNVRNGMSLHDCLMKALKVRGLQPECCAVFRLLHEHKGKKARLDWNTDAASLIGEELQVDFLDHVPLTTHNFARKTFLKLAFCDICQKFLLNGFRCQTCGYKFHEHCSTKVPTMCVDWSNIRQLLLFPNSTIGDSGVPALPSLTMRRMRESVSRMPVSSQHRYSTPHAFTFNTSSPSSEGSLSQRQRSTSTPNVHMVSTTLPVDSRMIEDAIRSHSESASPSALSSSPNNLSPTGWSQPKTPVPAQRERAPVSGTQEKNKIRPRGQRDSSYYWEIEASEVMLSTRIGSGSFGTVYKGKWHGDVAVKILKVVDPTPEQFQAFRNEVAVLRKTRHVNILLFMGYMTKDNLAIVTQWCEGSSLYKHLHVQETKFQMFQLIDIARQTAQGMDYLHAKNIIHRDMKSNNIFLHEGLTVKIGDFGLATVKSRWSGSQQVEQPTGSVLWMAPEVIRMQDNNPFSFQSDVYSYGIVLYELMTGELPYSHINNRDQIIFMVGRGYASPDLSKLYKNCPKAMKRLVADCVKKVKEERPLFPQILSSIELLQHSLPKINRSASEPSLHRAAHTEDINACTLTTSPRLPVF
Protocol: as §1

[3] = Relative solubility by turbidity threshold concentration in aqueous buffers (pH 1.5, 4.5, 6.8, 7.4); type: physicochemical; conditions: for turbidity threshold (L, M, H) 4.5: pH 4.5 (SIF); for turbidity threshold (L, M, H) 6.8: pH 6.8 (SIF); for turbidity threshold (L, M, H) 1.4: pH 1.4 [sic] (method: SGF pH 1.5); for turbidity threshold (L, M, H) 7.4: pH 7.4 (HEPES)
Outline: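 Solubility class (high >250 μM, moderate 31.3–250 μM, low <31.3 μM) comes from the concentration where absorbance reaches a 0.01 threshold, averaged across 490/535/650 nm. Samples were compound dilutions from DMSO stock, 1 μL into 99 μL buffer at pH 1.5, 4.5, 6.8 or 7.4.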

CYP1A2 = CYP1A2 (Homo sapiens (Human), UniProt P05177); assay: CYP enzyme inhibition, fluorescent substrate (CEC)
CYP1A2, sequence (P05177 whole entry): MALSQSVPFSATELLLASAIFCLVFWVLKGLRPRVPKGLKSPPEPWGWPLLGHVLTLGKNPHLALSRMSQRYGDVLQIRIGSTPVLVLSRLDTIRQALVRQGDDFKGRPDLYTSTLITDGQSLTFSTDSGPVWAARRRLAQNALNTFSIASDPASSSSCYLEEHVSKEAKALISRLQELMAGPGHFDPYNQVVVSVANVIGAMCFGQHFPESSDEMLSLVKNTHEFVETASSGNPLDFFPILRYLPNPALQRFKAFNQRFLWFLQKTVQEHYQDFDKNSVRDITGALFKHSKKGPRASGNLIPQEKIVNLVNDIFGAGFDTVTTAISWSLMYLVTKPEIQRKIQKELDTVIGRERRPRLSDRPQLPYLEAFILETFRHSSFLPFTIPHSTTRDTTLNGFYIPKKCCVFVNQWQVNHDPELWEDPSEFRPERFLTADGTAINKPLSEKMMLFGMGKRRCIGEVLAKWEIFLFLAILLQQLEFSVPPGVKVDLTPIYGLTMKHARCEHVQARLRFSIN
Protocol: (§2) CYP (Cytochrome P450) enzymes are the major drug metabolizing enzymes present in the liver. The inhibition of CYP enzyme activity (IC50) for each of CYP1A2, CYP2C19, CYP2C9, CYP2D6, CYP3A4(BFC) and CYP3A4(BQ) is determined for compounds, where inhibition of metabolism of a known substrate leads to a decrease in the fluorescence of the metabolized product. The fluorescence of the product is monitored as a function of compound concentration.
(§3) Compounds are dissolved in dimethyl sulfoxide to a concentration of 100 mM. These are diluted 1 μL into 82 μL of acetonitrile. An 11 μL aliquot of this solution is then added to 204 μL of cofactor mix (1.3% NADPH Regeneration system Solution A, 1.04% NADPH Regeneration system Solution B from BD Biosciences, 5% acetonitrile and 0.05% dimethyl sulfoxide). These are then serially diluted 1:1 (160 μL to 160 μL co-factor mix) for a total of 10 points. A 10 μL aliquot of this final mixture is dispensed into 384 well assay plates and incubated for 10 minutes at 37° C. Enzyme and substrate mix (10 μL; 0.5 pmol CYP1A2/5 μM CEC; 1.0 pmol CYP2C9/75 μM MFC; 0.5 pmol CYP2C19/25 μM CEC; 1.5 pmol CYP2D6/1.5 μM AMMC; 1.0 pmol CYP3A4/50 μM BFC; or 1.0 pmol CYP3A4/40 μM BQ) is added to these assay plates. Assay plates are incubated at 37° C. (CYP1A2-15 min; CYP2C9-45 min; CYP2C19, 2D6 and 3A4-30 min) and read in a Tecan Safire 2 plate reader (CYP1A2, 2C19 and 3A4 409 ex/460 em; CYP2C9 and 2D6 409 ex/530 em). The signal versus compound concentration is used to determine the IC50. The enzymes and substrates for this assay are obtained from BD Biosciences.

CYP2C19 = CYP2C19 (Homo sapiens (Human), UniProt P33261); assay: CYP enzyme inhibition, fluorescent substrate (CEC); conditions: read-out: Cyp IC50 2C19; CYP2C19, substrate CEC
CYP2C19, sequence (P33261 whole entry): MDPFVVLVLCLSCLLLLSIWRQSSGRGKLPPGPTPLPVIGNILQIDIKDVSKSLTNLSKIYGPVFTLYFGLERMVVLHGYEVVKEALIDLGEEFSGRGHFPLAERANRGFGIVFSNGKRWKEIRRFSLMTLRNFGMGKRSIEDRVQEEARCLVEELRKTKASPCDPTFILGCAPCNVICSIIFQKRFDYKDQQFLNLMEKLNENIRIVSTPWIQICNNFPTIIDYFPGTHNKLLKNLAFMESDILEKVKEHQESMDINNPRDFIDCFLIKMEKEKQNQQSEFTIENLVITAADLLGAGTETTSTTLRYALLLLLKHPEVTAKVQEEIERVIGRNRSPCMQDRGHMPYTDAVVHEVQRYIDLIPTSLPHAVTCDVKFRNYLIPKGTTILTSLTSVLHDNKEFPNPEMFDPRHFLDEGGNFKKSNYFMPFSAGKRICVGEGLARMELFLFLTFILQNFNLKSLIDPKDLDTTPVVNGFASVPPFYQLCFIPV
Protocol: as §2
(§4) Compounds are dissolved in dimethyl sulfoxide to a concentration of 100 mM. These are diluted 1 μL into 82 μL of acetonitrile. […] These are then serially diluted 1:1 (160 μL to 160 μL co-factor mix) for a total of 10 points. A 10 μL aliquot of this final mixture is dispensed into 384 well assay plates and incubated for 10 minutes at 37° C. […] Assay plates are incubated at 37° C. […] The signal versus compound concentration is used to determine the IC50. The enzymes and substrates for this assay are obtained from BD Biosciences.

CYP2C9 = CYP2C9 (Homo sapiens (Human), UniProt P11712); assay: CYP enzyme inhibition, fluorescent substrate (MFC); conditions: read-out: Cyp IC50 2C9; CYP2C9, substrate MFC
CYP2C9, sequence (P11712 whole entry): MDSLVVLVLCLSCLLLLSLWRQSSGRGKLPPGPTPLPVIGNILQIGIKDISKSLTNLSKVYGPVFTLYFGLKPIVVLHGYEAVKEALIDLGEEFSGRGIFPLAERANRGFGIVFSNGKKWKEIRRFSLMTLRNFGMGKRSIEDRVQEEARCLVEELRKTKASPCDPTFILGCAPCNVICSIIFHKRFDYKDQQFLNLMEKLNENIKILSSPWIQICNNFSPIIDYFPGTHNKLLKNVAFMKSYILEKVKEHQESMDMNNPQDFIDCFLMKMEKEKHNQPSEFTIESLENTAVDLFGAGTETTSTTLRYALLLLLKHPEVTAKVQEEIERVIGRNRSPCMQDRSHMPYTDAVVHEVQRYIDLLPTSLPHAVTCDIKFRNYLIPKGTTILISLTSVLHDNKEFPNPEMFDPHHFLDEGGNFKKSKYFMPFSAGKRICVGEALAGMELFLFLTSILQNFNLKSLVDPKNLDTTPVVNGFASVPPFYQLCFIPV
Protocol: as §2, §4

CYP2D6 = CYP2D6 (Homo sapiens (Human), UniProt P10635); assay: CYP enzyme inhibition, fluorescent substrate (AMMC); type: in vitro ADME; conditions: read-out: Cyp IC50 2D6
CYP2D6, sequence (P10635 whole entry): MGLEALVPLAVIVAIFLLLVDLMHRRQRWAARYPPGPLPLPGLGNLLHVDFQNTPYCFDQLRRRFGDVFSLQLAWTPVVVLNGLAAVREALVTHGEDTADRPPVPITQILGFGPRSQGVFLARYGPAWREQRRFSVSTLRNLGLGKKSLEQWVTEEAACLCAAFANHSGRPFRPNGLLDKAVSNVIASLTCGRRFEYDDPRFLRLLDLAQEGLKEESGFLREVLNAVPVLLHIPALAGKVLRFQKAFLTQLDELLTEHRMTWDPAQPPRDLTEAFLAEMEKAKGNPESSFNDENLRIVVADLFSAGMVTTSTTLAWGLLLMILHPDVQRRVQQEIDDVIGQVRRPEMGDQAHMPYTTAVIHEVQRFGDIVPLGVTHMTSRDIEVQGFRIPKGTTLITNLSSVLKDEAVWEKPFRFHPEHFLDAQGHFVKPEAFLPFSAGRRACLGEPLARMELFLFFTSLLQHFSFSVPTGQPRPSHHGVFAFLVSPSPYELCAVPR
Protocol: as §2, §3

CYP3A4(BFC) = CYP3A4(BFC) (Homo sapiens (Human), UniProt P08684); assay: CYP enzyme inhibition, fluorescent substrate BFC
CYP3A4(BFC), sequence (P08684 whole entry): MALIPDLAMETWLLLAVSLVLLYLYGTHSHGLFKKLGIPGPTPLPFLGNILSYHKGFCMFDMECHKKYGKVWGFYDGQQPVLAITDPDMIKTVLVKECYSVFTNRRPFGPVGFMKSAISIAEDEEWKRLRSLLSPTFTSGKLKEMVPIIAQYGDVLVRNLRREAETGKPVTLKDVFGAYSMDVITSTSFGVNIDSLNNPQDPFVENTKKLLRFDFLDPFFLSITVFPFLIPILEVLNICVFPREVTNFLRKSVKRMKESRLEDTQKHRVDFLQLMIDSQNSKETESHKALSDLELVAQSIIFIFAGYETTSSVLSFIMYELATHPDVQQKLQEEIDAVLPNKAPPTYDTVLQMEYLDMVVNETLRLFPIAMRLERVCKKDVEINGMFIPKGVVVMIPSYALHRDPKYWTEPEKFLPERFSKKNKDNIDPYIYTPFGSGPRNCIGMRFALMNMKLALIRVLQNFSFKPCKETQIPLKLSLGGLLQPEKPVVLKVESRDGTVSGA
Protocol: as §2, §4

[4] = read-out: Cyp IC50 3A4(BFC), CYP3A4, substrate BFC

B-Raf (Homo sapiens (Human), UniProt P15056), sequence (P15056 whole entry): as the sequence (P15056 whole entry V600E) above, with E600V counted along it

SMILES	IC50 (B-Raf [1]) [µM]	Biochemical activity ratio B/V600E (B-Raf [2])	Biochemical activity ratio B/C (B-Raf [2])	IC50 (B-Raf V600E) [µM]	Biochemical activity ratio V600E/C (B-Raf V600E)	IC50 (c-Raf-1) [µM]	turbidity threshold (L, M, H) 4.5 [3]	turbidity threshold (L, M, H) 6.8 [3]	IC50 (CYP1A2; human, 15 min) [µM]	IC50 (CYP2C19) [µM]	IC50 (CYP2C9) [µM]	IC50 (CYP2D6) [µM]	IC50 (CYP3A4(BFC); [4]) [µM]	turbidity threshold (L, M, H) 1.4 [3]	turbidity threshold (L, M, H) 7.4 [3]	IC50 (CYP1A2; read-out: Cyp IC50 1A2, CYP1A2, substrate CEC) [µM]	IC50 (CYP3A4(BFC)) [µM]
Cc1cc(C)cc(S(=O)(=O)Nc2ccc(F)c(C(=O)c3c[nH]c4ncnc(C)c34)c2F)c1 [P-1027, N-[2,4-Difluoro-3-(4-methyl-7H-pyrrolo[2,3-d]pyrimidine-5-carbonyl)-phenyl]-3,5-dimethyl-benzenesulfonamide]	> 0.1	0.1-10	>10	> 0.1	0.1-10	< 0.1	L (low solubility if the threshold concentration is <31.3 μM)	M (moderate solubility if the threshold concentration is 31.3 μM to 250 μM)	> 10	> 10	> 10	> 10	> 10				
Nc1ncnc2[nH]cc(C(=O)c3c(F)ccc(NS(=O)(=O)c4ccc(C(F)(F)F)cc4)c3F)c12 [P-1031, N-[3-(4-Amino-7H-pyrrolo[2,3-d]pyrimidine-5-carbonyl)-2,4-difluoro-phenyl]-4-trifluoromethyl-benzenesulfonamide]	> 0.1	0.1-10	>10	> 0.1	>10	< 0.1	M (moderate solubility if the threshold concentration is 31.3 μM to 250 μM)	M (moderate solubility if the threshold concentration is 31.3 μM to 250 μM)		> 10	> 10	> 10	> 10	M (moderate solubility if the threshold concentration is 31.3 μM to 250 μM)	M (moderate solubility if the threshold concentration is 31.3 μM to 250 μM)	> 10	
O=C(c1c(F)ccc(NS(=O)(=O)c2ccc(C(F)(F)F)cc2)c1F)c1c[nH]c2ncnc(Nc3ccccc3)c12 [P-1037, N-[2,4-Difluoro-3-(4-phenylamino-7H-pyrrolo[2,3-d]pyrimidine-5-carbonyl)-phenyl]-4-trifluoromethyl-benzenesulfonamide]	< 0.1	0.1-10	>10	> 0.1	>10	< 0.1	L (low solubility if the threshold concentration is <31.3 μM)	L (low solubility if the threshold concentration is <31.3 μM)	> 10	< 5	> 10	> 10	> 10	L (low solubility if the threshold concentration is <31.3 μM)	L (low solubility if the threshold concentration is <31.3 μM)		
CC(C)Nc1ncnc2[nH]cc(C(=O)c3c(F)ccc(NS(=O)(=O)c4ccc(C(F)(F)F)cc4)c3F)c12 [P-1039, N-[2,4-Difluoro-3-(4-isopropylamino-7H-pyrrolo[2,3-d]pyrimidine-5-carbonyl)-phenyl]-4-trifluoromethyl-benzenesulfonamide]	< 0.1	0.1-10	>10	< 0.1	>10	< 0.1	M (moderate solubility if the threshold concentration is 31.3 μM to 250 μM)	M (moderate solubility if the threshold concentration is 31.3 μM to 250 μM)	> 10	> 10	> 10	> 10		M (moderate solubility if the threshold concentration is 31.3 μM to 250 μM)	M (moderate solubility if the threshold concentration is 31.3 μM to 250 μM)		5 to 10
